# According to patent US20110039762A1, “TARGETED ANTIMICROBIAL MOIETIES” (C3 JIAN, INC., priority 2009, published 2011):
# Entries after “also recorded” stand apart in the source; their conditions may differ.
# System: microorganisms (e.g., bacteria, yeasts, fungi)
# Test: Targeting peptide binding to target microorganisms (Table 3)
# Conditions: microorganism the targeting peptide binds; binding in aqueous buffers varied by peptide solubility, preferably 1x PBS
row,Substance,Target(s)
1,1T-11 (RISE; Peptide with targeting and/or antimicrobial activity) [Peptide 1T-11],S. mutans; also recorded: S. epidermidis; also recorded: P. aeruginosa
2,1T-196 (KPEKEKLDTNTLMKVVNKALSLFDRLLIKFGA; Peptide with targeting and/or antimicrobial activity) [Peptide 1T-196],F. nucleatum; also recorded: S. sanguinis
3,TT-308 (GLVIIPNLIALIILFSQVRQQTKDYFSNPKLSSR; Peptide with targeting and/or antimicrobial activity),F. nucleatum
4,1T-32 (VSFLAGWLCLGLAAWRLGNA; Peptide with targeting and/or antimicrobial activity) [Peptide 1T-32],S. mutans
5,1T-291 (DMKIIKLYIKILSFLFIKYCNKKLNSVKLKA; Peptide with targeting and/or antimicrobial activity) [Peptide 1T-291],A. naeslundii; also recorded: F. nucleatum; also recorded: P. gingivalis; also recorded: T. denticola; also recorded: S. mitis; also recorded: S. mutans; also recorded: S. oralis
6,1T-125 (DAITGGNPPLSDTDGLRP; Peptide with targeting and/or antimicrobial activity) [Peptide 1T-125],S. epidermidis; also recorded: S. gordonii; also recorded: S. mutans; also recorded: S. oralis
7,1T-93 (AMRSVNQA; Peptide with targeting and/or antimicrobial activity) [Peptide 1T-93],S. epidermidis; also recorded: S. gordonii; also recorded: S. mitis; also recorded: S. mutans; also recorded: S. oralis; also recorded: S. sanguinis
8,PF-018 (YYKTYFKEV; Peptide with targeting and/or antimicrobial activity),E. coli; also recorded: C. jeikeium
9,1T-260 (NILYFIHDENQWEPQKAEIFRGSIKHCAWLSS; Peptide with targeting and/or antimicrobial activity) [Peptide 1T-260],A. naeslundii; also recorded: P. gingivalis; also recorded: S. epidermidis; also recorded: S. gordonii; also recorded: S. mitis; also recorded: S. mutans; also recorded: S. oralis; also recorded: S. sanguinis
10,1T-297 (RSLRLNNALTKLPKLWYNRIKEAFYAYNDYDK; Peptide with targeting and/or antimicrobial activity) [Peptide 1T-297],A. naeslundii; also recorded: F. nucleatum; also recorded: T. denticola; also recorded: S. mitis; also recorded: S. mutans; also recorded: S. oralis
11,1T-101 (RLRVGRATDLPLTSFAVGVVRNLPDAPAH; Peptide with targeting and/or antimicrobial activity) [Peptide 1T-101],A. naeslundii; also recorded: P. gingivalis; also recorded: S. epidermidis; also recorded: S. gordonii; also recorded: S. mitis; also recorded: S. mutans; also recorded: S. oralis; also recorded: S. sanguinis
12,1T-8 (FSVAACGEQRAVTFVLLIEDLI; Peptide with targeting and/or antimicrobial activity) [Peptide 1T-8],M. xanthus
13,1T-70 (NRQAQGERAHGEQQG; Peptide with targeting and/or antimicrobial activity) [Peptide 1T-70],S. aureus; also recorded: C. jeikeium; also recorded: P. aeruginosa

# Same assay, conditions: microorganism(s) the targeting peptide binds; binding in aqueous buffers depending on peptide solubility, preferably 1x PBS
row,Substance,Target(s)
1,PF-169 (APGSAADSPRSRADD; Peptide with targeting and/or antimicrobial activity),S. epidermidis; also recorded: E. coli; also recorded: C. albicans; also recorded: E. faecalis; also recorded: C. jeikeium
2,PF-160 (SFHASLTKNEKPIKSTG; Peptide with targeting and/or antimicrobial activity),S. epidermidis
3,PF-237 (YVKPKVGVHE; Peptide with targeting and/or antimicrobial activity),S. epidermidis
4,PF-097 (QPTQGEQGTRPRRPTPMRGLLI; Peptide with targeting and/or antimicrobial activity),C. jeikeium
5,PF-162 (GIRRLHSVENLNREISHRMAGLR; Peptide with targeting and/or antimicrobial activity),S. epidermidis and MRSA
6,AIEGVIKKGACFKLLRHEMF [PF-167],S. epidermidis and E. coli and C. albicans and MRSA and C. jeikeium and C. jejuni
7,PF-240 (RITEVPPDEHSDR; Peptide with targeting and/or antimicrobial activity),S. mutans; also recorded: E. coli
8,PF-238 (RNAVVVTEATFPKYEEEITNYLNRRFGEDWSLKLEKCSVA; Peptide with targeting and/or antimicrobial activity),S. mutans and S. epidermidis and E. coli and P. aeruginosa and C. albicans and MRSA and S. pneumoniae and E. faecalis
9,PF-104 (ERTAVNDLWI; Peptide with targeting and/or antimicrobial activity),MRSA and C. jeikeium
10,PF-202 (ALNRASLRLALGE; Peptide with targeting and/or antimicrobial activity),S. epidermidis and M. luteus and E. coli and MRSA and E. faecalis and C. jeikeium and C. jejuni
11,PF-206 (KLRSASKKSLQEKSCGIMPEKPAG; Peptide with targeting and/or antimicrobial activity),M. luteus; also recorded: C. albicans; also recorded: C. jeikeium; also recorded: C. jejuni
12,PF-256 (EYFKQVYVKNEKIYSFWICKDLSPKEAAKRAEDILVKLK; Peptide with targeting and/or antimicrobial activity),S. epidermidis
13,PF-288 (IYQLLNIEYSEDD; Peptide with targeting and/or antimicrobial activity),S. mutans; also recorded: E. coli
14,PF-189 (GNLTRSREAARATQ; Peptide with targeting and/or antimicrobial activity),S. epidermidis and M. luteus and C. albicans and MRSA and E. faecalis and C. jejuni
15,PF-340 (VKDVLLELFNKIIGA; Peptide with targeting and/or antimicrobial activity),S. mutans; also recorded: E. coli
16,PF-225 (MNCASPEFKKLMELYK; Peptide with targeting and/or antimicrobial activity),S. epidermidis

# Same assay, conditions: microorganism(s) the targeting peptide binds; peptide binding conducted in aqueous buffers varied by peptide solubility, preferably 1x PBS
row,Substance,Target(s)
1,PF-498 (MSEEEEVSEKVYNYLRRNEFFEVRKEEFSA; Peptide with targeting and/or antimicrobial activity),S. mutans; also recorded: E. coli
2,PF-496 (EVTKRLVALAQQQLRG; Peptide with targeting and/or antimicrobial activity),S. mutans; also recorded: E. coli
3,PF-494 (FTEPLRPLQAKGQIISIKPSTSSS; Peptide with targeting and/or antimicrobial activity),S. mutans
4,PF-506 (SGRGFALIVVLFILLIIVGAACIR; Peptide with targeting and/or antimicrobial activity),S. mutans; also recorded: E. coli
5,PF-492 (IQIDAASFYSISKSTIK; Peptide with targeting and/or antimicrobial activity),S. mutans; also recorded: B. subtilis; also recorded: E. coli
6,PF-500 (MGIFKEEKIKFIDCKGEEVILKIKIKDIKK; Peptide with targeting and/or antimicrobial activity),S. mutans; also recorded: E. coli

# Same assay, conditions: peptide binding in aqueous buffers varied by peptide solubility; preferably 1x PBS
row,Substance,Target(s) (microorganisms bound by the targeting peptide)
1,PF-714 (FVVTQRMLRMYKK; Peptide with targeting and/or antimicrobial activity),L. pneumophila
2,PF670 (TVIVAPMHSGV; Peptide with targeting and/or antimicrobial activity),Mycobacteria spp
3,PF-S004 (VLLNIFRTLLEFFSPSNAPGAEDVPLPDTQA; Peptide with targeting and/or antimicrobial activity),S. epidermidis and MRSA and C. jeikeium
4,PF-727 (AYARCRHDYPFTLGQMQTH; Peptide with targeting and/or antimicrobial activity),S. mutans; also recorded: E. coli
5,PF-791 (IFLTTQNTDYSEHNAA; Peptide with targeting and/or antimicrobial activity),S. mutans
6,PF-783 (FTSEVRGVFTYRVNKAGLITNMRGYWNLDMMTFGNQE; Peptide with targeting and/or antimicrobial activity),Mycobacteria spp.
7,PF-703 (MTTVDNIVGLVIAVALMAFLFAALLFPEKF; Peptide with targeting and/or antimicrobial activity),Mycobacteria spp
8,PF-786 (LSERERRRLKRGII; Peptide with targeting and/or antimicrobial activity),Mycobacteria spp.
9,PF-C273 (KNMLKRRMKQKRLFDEEDRLRVLSKYTKSYY; Peptide with targeting and/or antimicrobial activity),A. naeslundii; also recorded: P. gingivalis; also recorded: S. mutans; also recorded: T. denticola
10,PEIIKIVSGLL [PF-758],S. epidermidis and M. luteus and E. coli and MRSA and S. pneumoniae and E. faecalis and C. jeikeium
